1 molecule from US20220185822A1, “SELECTIVE LIGANDS OF HUMAN CONSTITUTIVE ANDROSTANE RECEPTOR” (USTAV ORGANICKE CHEMIE A BIOCHEMIE AV CR, V.V.I., priority 2019, published 2022) can be followed below.

Some results are limits rather than exact numbers.

By IC50 is commonly meant the point on the concentration scale where inhibition reaches its midpoint.

Data set [1] in a line: Stability in human plasma. The note with it: over 120 minutes. Type of data set: in vitro ADME.
A further data set concerns the target T1, human CYP2D6 (Homo sapiens, UniProt P10635).
T1 construct: purchased Promega V8891
In words: Commercial CYP450-Glo inhibition assay, CYP2D6. The data set is classed as in vitro ADME.

T1 sequence (P10635 whole entry): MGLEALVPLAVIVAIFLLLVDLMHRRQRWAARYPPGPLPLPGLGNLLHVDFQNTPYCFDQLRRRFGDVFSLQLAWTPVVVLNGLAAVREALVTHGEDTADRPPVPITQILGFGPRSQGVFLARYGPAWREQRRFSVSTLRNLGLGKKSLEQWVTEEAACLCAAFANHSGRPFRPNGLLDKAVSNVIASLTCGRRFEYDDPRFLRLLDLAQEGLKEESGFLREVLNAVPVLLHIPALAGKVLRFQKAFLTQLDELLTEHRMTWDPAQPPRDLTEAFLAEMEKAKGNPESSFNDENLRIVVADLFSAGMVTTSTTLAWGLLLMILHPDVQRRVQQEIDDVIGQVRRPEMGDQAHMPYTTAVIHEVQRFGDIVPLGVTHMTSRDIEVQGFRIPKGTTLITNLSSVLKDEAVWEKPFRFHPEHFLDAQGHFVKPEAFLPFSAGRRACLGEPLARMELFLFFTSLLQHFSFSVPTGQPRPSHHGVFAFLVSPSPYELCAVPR
Description for human CYP2D6: Genetically modified microsomes with human CYP3A4, CYP2C9, CYP2D6 and CYP1A2 enzymes (CYP450-Glo™ CYP3A4 Assay with Luciferin-IPA (Cat. No. V8802), CYP450-Glo™ CYP1A2 with Luciferin-1A2 (Cat. No. V8772), CYP450-Glo™ CYP2C9 Assay with Luciferin-H (Cat. No. V8792, Promega, Madison, Calif.) and P450-Glo™ CYP2D6 Assay Cat. No. V8891, Promega) were used according to manufacturer's procedures. […] Each point was tested in triplicates and experiments have been repeated three times.

As for `NC(=O)c1cc(Cn2cc(-c3c(-c4ccc(Cl)cc4)nc4cc(F)ccn34)nn2)ccc1Cl` [Example 93, 2-Chloro-5-((4-(2-(4-chlorophenyl)-7-fluoroimidazo[1,2-a]pyridin-3-yl)-1H-1,2,3-triazol-1-yl)methyl)benzamide], the “stability in human plasma” value in data set [1] is “stable”. Moreover, the IC50 against human CYP2D6 was greater than 10 µM.
